Series [1] addresses T1, soluble form of SEP (Mus musculus, UniProt Q9JLI3).
T1 construct: partially purified the soluble form of SEP from the conditioned medium of CHO/SEP cells; made in house; host or cells: CHO-K1 cells, transient transfection; conditioned medium partially purified on a wheat germ lectin column
T1 sequence (Q9JLI3 63-765 limits assumed): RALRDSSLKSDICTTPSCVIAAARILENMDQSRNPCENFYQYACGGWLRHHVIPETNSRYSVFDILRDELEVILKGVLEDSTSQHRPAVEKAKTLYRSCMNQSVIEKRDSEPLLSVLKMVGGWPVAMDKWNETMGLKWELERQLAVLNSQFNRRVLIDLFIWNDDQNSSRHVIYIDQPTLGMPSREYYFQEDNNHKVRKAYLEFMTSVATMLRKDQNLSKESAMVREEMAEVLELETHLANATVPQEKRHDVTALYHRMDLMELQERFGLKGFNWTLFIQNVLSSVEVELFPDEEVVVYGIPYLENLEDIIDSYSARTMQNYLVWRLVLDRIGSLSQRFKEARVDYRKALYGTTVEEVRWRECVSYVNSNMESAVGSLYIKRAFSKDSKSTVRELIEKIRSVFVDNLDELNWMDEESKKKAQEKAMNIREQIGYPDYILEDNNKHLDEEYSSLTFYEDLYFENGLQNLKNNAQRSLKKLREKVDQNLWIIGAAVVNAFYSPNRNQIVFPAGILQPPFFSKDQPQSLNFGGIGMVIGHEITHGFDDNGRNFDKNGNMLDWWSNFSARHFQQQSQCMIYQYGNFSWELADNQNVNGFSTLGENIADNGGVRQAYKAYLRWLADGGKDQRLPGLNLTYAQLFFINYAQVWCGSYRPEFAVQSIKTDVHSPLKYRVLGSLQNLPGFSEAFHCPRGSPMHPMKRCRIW
Briefly: Inhibition of ET-1 degrading activity of recombinant soluble SEP. It is filed as biochemical. The note with it: for SEP activity: Inhibitor 100 μM, SEP partially purified from conditioned medium of CHO/SEP cells, no inhibitor = 100, unit assumed; for inhibition of SEP activity (in words) / IC50: soluble form of SEP; for inhibition of SEP activity (in words): in vitro; for IC50: ET-1 degrading activity, dose-dependent, read-out: apparent IC50, inhibition of SEP activity. How it is done:
(§1) Double transfection of prepro-ET-1and ECE-1a, SEP, or SEP^Δ was performed using LipofectAMINE (Life Technologies, Inc.). Twelve hours after transfection, cells were refed with fresh medium. […] For in vitro enzymological charactenization, an SEP expression construct was transiently transfected into CHO-K1 cells. The medium was conditioned for 48 h in CHO-SFM II (Life Technologies, Inc.) and was subjected to a wheat germ lectin column (1×1 ml HiTrap wheat germ lectin; Amersham Pharmacia Biotech) equilibrated with 20 mM Tris-Cl (pH 7.4) and 0.5M NaCl. The column was washed and eluted with the same buffer containing 0.5M N-acetylglucosamine. The active fraction was subsequently subjected to a Centriprep concentrator (Amicon).
(§2) Reaction mixtures for enzyme assay (100 μl) contained 0.1 M MES-NaOH(pH 7.4), 0.5 μM peptide, and an enzyme fraction. For some experiments, the reactions were preincubated at 37° C. with various protease inhibitors for 15 min prior to the addition of the peptide. The reactions were incubated at 37° C. for 1-12 h in siliconized 0.5-ml microcentrifuge tubes. The enzyme reaction was terminated by adding 1 μl of 10 mM EDTA. The mixture was then injected into a C18 reverse-phase high pressure liquid chromatography (HPLC) column (μRPC C2/C18, ST4.6/100; Amersham Pharmacia Biotech) that was equilibrated with 10% (v/v) acetonitrile and 0.1% (v/v) trifluoroacetic acid. The column was eluted at a flow rate of 1 ml/min with a 10-80% linear gradient of acetonitrile and 0.1% trifluoroacetic acid over 43 min, followed by a 100% acetonitrile for an additional 3 min. Peptides were detected by absorbance at 220 nm.
The present inventors next assessed the enzymological properties of cloned SEP by using its ET-1 degrading activity.

The target in series [2] is T1, soluble form of SEP. The experiment in a line: SEP-catalyzed hydrolysis of bioactive peptides monitored by HPLC. Conditions: by recombinant soluble SEP, substrate peak area vs control. It is filed as biochemical. How it is done: as §1, with “CHO-K1 cells were cultured [Emoto, N. et al., J. Biol. Chem., 274:1509-1518(1999)]. Double” for “Double”
as §2
Previously, the present inventors have shown that ECE-1 cleaves the Trp^21-Val^22 bond of big ET-1 (1-38) to produce mature ET-1(1-21) and the C-terminal half of big ET-1(22-38) without further cleaving other parts of big ET-1 or ET-1 [Xu, D. et al., Cell, 78:473-485(1994)]. To examine the cleavage site(s) of big ET-1 and mature ET-1 by recombinant SEP in an […] assay, the present inventors partially purified the soluble form of SEP from the conditioned medium of CHO/SEP cells. The present inventors then incubated relatively large amounts of big ET-1 (10 μM) and ET-1 (1.5 μM) with partially purified SEP for a prolonged period of time (12 h) while directly monitoring the cleavage by reverse-phase HPLC. Product peaks were collected, and the peptides were identified by mass spectrometry. Big ET-1 (1-38) was hydrolyzed to a significant degree (42%) by the soluble form of SEP, and HPLC resolved at least four distinct product peaks (FIG. 7B). Two peptides products (FIG. 7C, peaks 1 and 4) were co-eluted with the standards of big ET-1 (22-38) and mature ET-1 (1-21), respectively. Analysis using mass spectrometry confirmed that they were big ET-1 (22-38) and mature ET-1(1-2 1), with an m/z value for (M+H)^+ of 1810 and 2493, respectively. These finding indicate that the soluble form of SEP can produce ET-1 by cleaving at the specific Trp^21-Val^22 site of big ET-1. On the other hand, it appears that ET-1 is further digested by the soluble form of SEP. […] These two major peaks (FIG. 7D, peaks 1 and 2) from mature ET-1 were co-eluted with the peaks (FIG. […], peaks 2 and 3, respectively) produced from big ET-1 hydrolysis. Using molecular masses, one peptide product (FIG. 7; C, peak 3, and D, peak 2) was identified as ET-1 (1-16). Another peptide product (FIG. 7; C, peak 2, and D, peak 1) appeared to be the two-chain ET-1 (1-16), which is held together by two disulfide bonds between Cys^1 and Cys^15 and between Cys^3 and Cys^11, presumably produced by cleavage at one site between Ser^4 and Glu^10 of ET-1 (1-16).
Finally, the present inventors examined the SEP-catalyzed hydrolysis of other bioactive peptides that have been characterized as substrates of ECE-1 and/or NEP. […]

The test system of the next series is ECE-1 and ECE-2. The note with it: ECE-1 vs ECE-2; cited from earlier work.
The target in series [3] is T2, synthetic human big ET-1 (1-38), P05305.
T2 chain: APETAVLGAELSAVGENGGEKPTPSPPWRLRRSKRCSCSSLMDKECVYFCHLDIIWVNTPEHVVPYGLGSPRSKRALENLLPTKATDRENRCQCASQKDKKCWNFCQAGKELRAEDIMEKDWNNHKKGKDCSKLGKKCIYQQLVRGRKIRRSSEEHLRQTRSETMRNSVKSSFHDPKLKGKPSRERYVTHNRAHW

In series [4] the target is T3, synthetic human ET-1 (1-21), P05305.
T3 chain: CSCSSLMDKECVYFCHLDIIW

Another series has as its target T4, substance P, P20366.
T4 chain: RPKPQQFFGLM

The target of series [5] is atrial natriuretic peptide.

Substitutions are numbered along the chain they refer to. “Also recorded” adds a separate entry of the source. Ends that are not written are not given here.

angiotensin I, P01019, sequence (P01019 whole entry, looked up): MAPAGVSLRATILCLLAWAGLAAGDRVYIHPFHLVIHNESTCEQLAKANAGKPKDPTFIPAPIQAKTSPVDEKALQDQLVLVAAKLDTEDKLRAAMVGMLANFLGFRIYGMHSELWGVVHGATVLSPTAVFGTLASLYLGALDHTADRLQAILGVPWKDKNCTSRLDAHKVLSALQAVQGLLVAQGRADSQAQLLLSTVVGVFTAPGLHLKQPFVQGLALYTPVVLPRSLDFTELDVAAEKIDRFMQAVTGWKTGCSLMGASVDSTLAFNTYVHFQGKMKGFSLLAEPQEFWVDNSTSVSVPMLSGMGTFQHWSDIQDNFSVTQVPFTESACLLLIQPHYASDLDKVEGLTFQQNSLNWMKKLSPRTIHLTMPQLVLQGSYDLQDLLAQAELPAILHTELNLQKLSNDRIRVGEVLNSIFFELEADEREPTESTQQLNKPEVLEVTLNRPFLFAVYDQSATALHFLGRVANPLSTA
bradykinin, P01042, sequence (P01042 whole entry, looked up): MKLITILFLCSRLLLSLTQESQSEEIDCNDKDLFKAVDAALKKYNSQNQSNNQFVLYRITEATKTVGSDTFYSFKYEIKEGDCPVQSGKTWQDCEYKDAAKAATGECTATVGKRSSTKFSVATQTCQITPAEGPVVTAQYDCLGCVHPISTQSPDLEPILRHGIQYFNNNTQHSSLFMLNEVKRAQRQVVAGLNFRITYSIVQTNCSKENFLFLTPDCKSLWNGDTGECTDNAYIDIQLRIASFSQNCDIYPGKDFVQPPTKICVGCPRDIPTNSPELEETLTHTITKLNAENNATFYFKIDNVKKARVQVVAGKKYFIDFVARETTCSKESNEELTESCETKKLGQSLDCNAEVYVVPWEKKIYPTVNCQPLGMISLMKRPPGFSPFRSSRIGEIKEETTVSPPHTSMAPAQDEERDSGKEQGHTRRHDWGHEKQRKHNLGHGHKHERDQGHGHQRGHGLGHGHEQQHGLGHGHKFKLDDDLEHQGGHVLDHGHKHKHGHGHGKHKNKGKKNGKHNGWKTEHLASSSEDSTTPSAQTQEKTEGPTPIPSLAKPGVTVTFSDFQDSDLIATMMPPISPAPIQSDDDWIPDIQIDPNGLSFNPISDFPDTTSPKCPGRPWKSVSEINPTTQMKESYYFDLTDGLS

As for `c1cnc2c(c1)ccc1cccnc12` [1,10-Phenanthroline, 1,10-phenanthroline], at soluble form of SEP [1], the SEP activity amounted to 1% and the “inhibition of SEP activity (in words)” value is on record as “inhibited”.
On to `CC[C@H](C)[C@@H]1NC(=O)[C@H](CCCNC(=N)N)NC(=O)[C@H](CC(=O)O)NC(=O)[C@H](CCSC)NC(=O)[C@H](CCCNC(=N)N)NC(=O)CNC(=O)CNC(=O)[C@H](Cc2ccccc2)NC(=O)[C@@H](NC(=O)[C@H](CO)NC(=O)[C@H](CO)NC(=O)[C@H](CCCNC(=N)N)NC(=O)[C@H](CCCNC(=N)N)NC(=O)[C@H](CC(C)C)NC(=O)[C@@H](N)CO)CSSC[C@@H](C(=O)N[C@@H](CC(N)=O)C(=O)N[C@@H](CO)C(=O)N[C@@H](Cc2ccccc2)C(=O)N[C@@H](CCCNC(=N)N)C(=O)N[C@@H](Cc2ccc(O)cc2)C(=O)O)NC(=O)CNC(=O)[C@H](CC(C)C)NC(=O)CNC(=O)[C@H](CO)NC(=O)[C@H](CCC(N)=O)NC(=O)[C@H](C)NC(=O)CNC1=O` [Atrial Natriuretic peptide], for which the “Hydrolysis (%)” value at soluble form of SEP [2] was over 95%.
Regarding `C[C@H](CS)C(=O)N1CCC[C@H]1C(=O)O` [Captopril, captopril], at soluble form of SEP [1], the SEP activity turned out to be 103% and the “inhibition of SEP activity (in words)” value is on record as “not inhibited”.
On the same counts, the results for `COc1c2c(c(O)c3c1C(O)Cc1cc(CC(C)O)c(C(=O)O)c(O)c1-3)C(=O)c1cccc(O)c1C2=O` (stereo not shown) [FR901533] are 38% and “not completely; also recorded: only partially inhibited”.
Take `CC(C)C[C@H](NP(=O)(O)O[C@@H]1O[C@@H](C)[C@H](O)[C@@H](O)[C@H]1O)C(=O)N[C@@H](Cc1c[nH]c2ccccc12)C(=O)O` [Phosphoramidon]: the “sensitivity of ECE-1 to phosphoramidon lower than that of ECE-2” value with ECE-1 and ECE-2 is on record as 250 fold. Moreover, at soluble form of SEP [1], the SEP activity is 8%, the IC50 (commonly the concentration needed to halve the response being measured) was about 6 nM and the “inhibition of SEP activity (in words)” value is listed as “inhibited”.
As for `O=C(O)CNC(=O)C(CS)Cc1ccccc1` (stereo not shown) [Thiorphan], at soluble form of SEP [1], the SEP activity came out at 2%, the IC50 was about 2000 nM and the “inhibition of SEP activity (in words)” value is “efficiently inhibited”.
In the case of “Angiotensin I: bioactive peptide substrate from American Peptides (DRVYIHPFHL)”, the “Hydrolysis (%)” value with soluble form of SEP [2] is over 95%.
Take “Big endothelin-1: synthetic human big ET-1, inactive ET precursor (CSCSSLMDKECVYFCHLDIIWVNTPEHVVPYGLGSPRS; ends and bridges not checked; cysteine pairing not given here; UniProt P05305 53-90, looked up)”: the “Hydrolysis (%)” value with soluble form of SEP [2] was 42%.
As for “Endothelin-1: human ET-1, mature endothelin peptide”, the “Hydrolysis (%)” value in the series with soluble form of SEP [2] amounted to 92%.
As to RPPGFSPFR [Bradykinin], the “Hydrolysis (%)” value at soluble form of SEP [2] is over 95%.
On the same count and under the same terms, the same measure for “Substance P: bioactive peptide substrate from American Peptides”: over 95%.

B1: soluble form of SEP (soluble secreted endopeptidase), partially purified from the conditioned medium of CHO/SEP cells (protein)
chain: T1 sequence (Q9JLI3 63-765 limits assumed) with M127L, L202P, T597S
As to B1, the Hydrolysis (%) with bradykinin, P01042 was over 95%; in [3], 42%; with angiotensin I, P01019, over 95%; in [4] it was 92%; with substance P, P20366, over 95%; in series [5] it was over 95%.
